Source: PubChem BioAssay (NCI)
Values joined by “and” are separate entries in the source; they are usually repeats but may differ in a detail not shown here. Equal values may be shown once.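 96-well plates; 48 h exposure; 5 concentrations. Endpoints by linear interpolation between flanking doses. Not reached: highest tested concentration assigned. GI50: concentration for 50% inhibition of growth. At the TGI there is no net growth.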

Key:
Experiment in all cases: NCI-60 cell line screen, 48 h
[1] = tested on: 786-0 renal
[2] = tested on: ACHN renal
[3] = tested on: CAKI-1 renal
[4] = tested on: CCRF-CEM leukemia
[5] = tested on: COLO 205 colon
[6] = tested on: DU-145 prostate
[7] = tested on: EKVX NSCLC
[8] = tested on: HCC-2998 colon
[9] = tested on: HCT-116 colon
[10] = tested on: HCT-15 colon
[11] = tested on: HL-60(TB) leukemia
[12] = tested on: HOP-62 NSCLC
[13] = tested on: HOP-92 NSCLC
[14] = tested on: HS 578T breast
[15] = tested on: HT29 colon
[16] = tested on: IGROV1 ovarian
[17] = tested on: K-562 leukemia
[18] = tested on: KM12 colon
[19] = tested on: LOX IMVI melanoma
[20] = tested on: M14 melanoma
[21] = tested on: MALME-3M melanoma
[22] = tested on: MCF7 breast
[23] = tested on: MDA-MB-231 breast
[24] = tested on: MDA-MB-435
[25] = tested on: MDA-N
[26] = tested on: MOLT-4 leukemia
[27] = tested on: NCI-H226 lung
[28] = tested on: NCI-H23 lung
[29] = tested on: NCI-H460 lung
[30] = tested on: NCI-H522 lung
[31] = tested on: NCI/ADR-RES ovarian
[32] = tested on: OVCAR-3 ovarian
[33] = tested on: OVCAR-4 ovarian
[34] = tested on: OVCAR-5 ovarian
[35] = tested on: OVCAR-8 ovarian
[36] = tested on: PC-3 prostate
[37] = tested on: RPMI-8226 leukemia
[38] = tested on: RXF 393 renal
[39] = tested on: SF-268 CNS
[40] = tested on: SF-295 CNS
[41] = tested on: SF-539 CNS
[42] = tested on: SK-MEL-28 melanoma
[43] = tested on: SK-MEL-5 melanoma
[44] = tested on: SK-OV-3 ovarian
[45] = tested on: SN12C renal
[46] = tested on: SNB-19 CNS
[47] = tested on: SR leukemia
[48] = tested on: SW-620 colon
[49] = tested on: T-47D breast
[50] = tested on: TK-10 renal
[51] = tested on: U251 CNS
[52] = tested on: UACC-257 melanoma
[53] = tested on: UACC-62 melanoma
[54] = tested on: A498 renal
[55] = tested on: A549 NSCLC
[56] = tested on: BT-549 breast
[57] = tested on: SK-MEL-2 melanoma
[58] = tested on: SNB-75 CNS
[59] = tested on: UO-31 renal

With `C[C@@H]([C@H]1CC[C@@]2(C)[C@@H]3CC[C@@H]4C(=CC3=CC[C@]12C)CC[C@H](N(C)C)C4(C)C)N(C)C` the TGI [1] was greater than 100 µM, the TGI [2] was greater than 100 µM and the TGI [3] was greater than 100 µM. The TGI [4] was greater than 100 µM, the TGI [5] was greater than 100 µM and the TGI [6] was greater than 100 µM. It also gave a TGI [7] greater than 100 µM, a TGI [8] greater than 100 µM and a TGI [9] greater than 100 µM. It also gave a TGI [10] greater than 100 µM, a TGI [11] greater than 100 µM and a TGI [12] greater than 100 µM. It also gave a TGI [13] greater than 100 µM, a TGI [14] greater than 100 µM and a TGI [15] greater than 100 µM. It also gave a TGI [16] greater than 100 µM, a TGI [17] greater than 100 µM and a TGI [18] greater than 100 µM. For the same compound, the TGI [19] was greater than 100 µM, the TGI [20] was greater than 100 µM and the TGI [21] was greater than 100 µM. For the same compound, the TGI [22] was greater than 100 µM, the TGI [23] was greater than 100 µM and the TGI [24] was greater than 100 µM. It also gave a TGI [25] greater than 100 µM, a TGI [26] greater than 100 µM and a TGI [27] greater than 100 µM. It also gave a TGI [28] greater than 100 µM, a TGI [29] greater than 100 µM and a TGI [30] greater than 100 µM. It also gave a TGI [31] greater than 100 µM, a TGI [32] greater than 100 µM and a TGI [33] greater than 100 µM. For the same compound, the TGI [34] was greater than 100 µM, the TGI [35] was greater than 100 µM and the TGI [36] was greater than 100 µM. The TGI [37] was greater than 100 µM, the TGI [38] was greater than 100 µM and the TGI [39] was greater than 100 µM. For the same compound, the TGI [40] was greater than 100 µM, the TGI [41] was greater than 100 µM and the TGI [42] was greater than 100 µM. The TGI [43] was greater than 100 µM, the TGI [44] was greater than 100 µM and the TGI [45] was greater than 100 µM. It also gave a TGI [46] greater than 100 µM, a TGI [47] greater than 100 µM and a TGI [48] greater than 100 µM. For the same compound, the TGI [49] was greater than 100 µM, the TGI [50] was greater than 100 µM and the TGI [51] was greater than 100 µM. For the same compound, the TGI [52] was greater than 100 µM and the TGI [53] was greater than 100 µM.
With `CCS(=O)(=O)c1cccc(-c2cc(C(=O)NC3CCN(C)CC3)c(C)c3[nH]c4ncc(C)cc4c23)c1` the GI50 [1] was 1.68 µM and 1.32 µM, the TGI [1] was > 8.05 µM and 4.7 µM and the GI50 [54] was 0.453 µM and 0.124 µM. For the same compound, the TGI [54] was 1.65 µM and 0.79 µM, the GI50 [55] was 0.49 µM and 0.169 µM and the TGI [55] was 4.12 µM and 3.79 µM. For the same compound, the GI50 [2] was 9.87 µM and 2.64 µM, the TGI [2] was > 10 µM and 10.6 µM and the GI50 [56] was 1.75 µM and 0.875 µM. The TGI [56] was 5.84 µM and 2.2 µM, the GI50 [3] was 1.35 µM and 6.41 µM and the TGI [3] was > 6.29 µM and 36.4 µM. For the same compound, the GI50 [4] was 0.101 µM and 0.0822 µM, the TGI [4] was > 10 µM and 38.1 µM and the GI50 [5] was 0.0923 µM and 0.0318 µM. For the same compound, the GI50 [6] was 1.21 µM and 0.745 µM, the TGI [6] was 3.48 µM and 2.35 µM and the GI50 [7] was 1.33 µM and 0.898 µM. For the same compound, the TGI [7] was > 10 µM and 11 µM, the GI50 [8] was 0.177 µM and 0.703 µM and the TGI [8] was 2.14 µM and 4.18 µM. For the same compound, the GI50 [9] was 0.128 µM and 0.0788 µM, the TGI [9] was 2.66 µM and 5.4 µM and the GI50 [10] was 13.6 µM. For the same compound, the TGI [10] was > 10 µM and 45.8 µM, the GI50 [11] was 0.179 µM and 0.442 µM and the TGI [11] was 4.22 µM and 3.97 µM. For the same compound, the GI50 [12] was 0.645 µM and 0.266 µM, the TGI [12] was > 6.56 µM and 2.01 µM and the GI50 [13] was 0.12 µM and 0.0887 µM. For the same compound, the TGI [13] was 0.595 µM and 0.33 µM, the GI50 [14] was 0.275 µM and 0.109 µM and the TGI [14] was 2.6 µM and 0.424 µM. The GI50 [15] was 0.372 µM and 0.236 µM, the TGI [15] was > 8.44 µM and 10.3 µM and the GI50 [16] was 0.179 µM and 0.111 µM. For the same compound, the TGI [16] was 1.76 µM and 2.55 µM, the GI50 [17] was 0.21 µM and 0.09 µM and the TGI [17] was > 10 µM and 11 µM. For the same compound, the GI50 [18] was 0.0954 µM and 0.0478 µM, the TGI [18] was 1.51 µM and 1.86 µM and the GI50 [19] was 0.168 µM and 0.16 µM. The TGI [19] was 1.22 µM and 0.747 µM, the GI50 [20] was 1.15 µM and 0.967 µM and the TGI [20] was > 8.78 µM and 6.73 µM. The GI50 [21] was 0.843 µM and 0.571 µM, the TGI [21] was 4.13 µM and 3.22 µM and the GI50 [22] was 0.105 µM and 0.0631 µM. For the same compound, the TGI [22] was 4.27 µM and 5.96 µM, the GI50 [23] was 0.232 µM and 0.196 µM and the TGI [23] was > 5.15 µM and 4.9 µM. The GI50 [24] was 0.722 µM and 0.304 µM, the TGI [24] was > 10 µM and 4.54 µM and the GI50 [26] was 0.316 µM and 0.237 µM. For the same compound, the TGI [26] was > 6.38 µM and 3.14 µM, the GI50 [27] was 0.372 µM and 0.714 µM and the TGI [27] was 3.83 µM and 5.2 µM. The GI50 [28] was 0.483 µM and 0.322 µM, the TGI [28] was 5.23 µM and 3.75 µM and the GI50 [29] was 0.201 µM and 0.0843 µM. The TGI [29] was 4.96 µM and 1.64 µM, the GI50 [30] was 0.148 µM and 0.164 µM and the TGI [30] was 2.27 µM and 1.68 µM. The GI50 [31] was 44.9 µM, the TGI [31] was greater than 100 µM and the GI50 [32] was 0.336 µM and 0.232 µM. For the same compound, the TGI [32] was 2.48 µM and 1.41 µM, the GI50 [33] was 1.04 µM and 0.249 µM and the TGI [33] was > 7.71 µM and 4.39 µM. The GI50 [34] was 0.463 µM and 0.34 µM, the TGI [34] was > 9.67 µM and 11.4 µM and the GI50 [35] was 1.58 µM and 0.855 µM. For the same compound, the TGI [35] was > 10 µM and 11.1 µM, the GI50 [36] was 0.374 µM and 0.104 µM and the TGI [36] was 5.85 µM and 4.71 µM. The GI50 [37] was 0.736 µM and 0.929 µM, the TGI [37] was > 7.51 µM and 9.07 µM and the GI50 [38] was 0.957 µM and 0.512 µM. The TGI [38] was 3.11 µM and 1.56 µM, the GI50 [39] was 0.332 µM and 0.245 µM and the TGI [39] was 2.19 µM and 1.1 µM. The GI50 [40] was 1.08 µM and 0.832 µM, the TGI [40] was > 10 µM and 5.63 µM and the GI50 [41] was 0.329 µM and 0.239 µM. For the same compound, the TGI [41] was 1.92 µM and 1.39 µM, the GI50 [57] was 0.694 µM and 0.673 µM and the TGI [57] was 3.07 µM and 3.38 µM. For the same compound, the GI50 [42] was 0.834 µM and 0.566 µM, the TGI [42] was 6.53 µM and 5.09 µM and the GI50 [43] was 2.29 µM and 0.798 µM. For the same compound, the TGI [43] was > 9.22 µM and 2.65 µM, the GI50 [44] was 0.624 µM and 0.771 µM and the TGI [44] was 4.31 µM and 7.31 µM. The GI50 [45] was 0.283 µM and 0.272 µM, the TGI [45] was 3.88 µM and 11.3 µM and the GI50 [46] was 0.302 µM and 0.25 µM. The TGI [46] was > 10 µM and 6.67 µM, the GI50 [58] was 0.101 µM and 0.0804 µM and the TGI [58] was 0.459 µM and 0.264 µM. The GI50 [47] was 0.0682 µM and < 0.0246 µM, the TGI [47] was 2.14 µM and 1.58 µM and the GI50 [48] was 0.268 µM and 0.143 µM. For the same compound, the TGI [48] was > 10 µM and 1.85 µM, the GI50 [49] was 0.277 µM and 0.204 µM and the TGI [49] was 4.12 µM and 3.16 µM. The GI50 [50] was 1.71 µM and 1.44 µM, the TGI [50] was > 8.01 µM and 6.7 µM and the GI50 [51] was 0.537 µM and 0.316 µM. The TGI [51] was 5.16 µM and 2.35 µM, the GI50 [52] was 1.26 µM and 0.562 µM and the TGI [52] was 6.79 µM and 4.67 µM. The GI50 [53] was 0.452 µM and 0.372 µM, the TGI [53] was 2.13 µM and 2.09 µM and the GI50 [59] was > 5.3 µM and 6.65 µM. The TGI [59] was > 10 µM and 26.4 µM.
